In patent publication US9422336B2 (priority 2012, dated 2016):

Assays:
[1] = tested on: acute visceral pain model in mice; test: acute visceral pain model in mice (acetic acid writhing); settings: n=6
[2] = tested on: H1N1 viruses; type: cell-based, influenza A virus H1N1; settings: 0.001-10 μM; MDCK monolayer; 5,000 pfu/ml; 3 days; FIG. 7 right panel
[3] = tested on: H5N1 viruses; type: cell-based, influenza A virus H5N1; settings: 0.001-10 μM; MDCK monolayer; 5,000 pfu/ml; 3 days; FIG. 7 left panel
[4] = tested on: sciatic nerve injured limb (hyperalgesia); test: thermal test (paw withdrawal latency) after partial sciatic nerve injury; type: in vivo, C57BL/6 male mice; settings: 2 mg i.p., N=6; for temperature-induced pain, paw withdrawal latency: injured limb, day 5, 10 and 30 after surgery, vs untreated (DMSO solvent), FIG. 5
Protocol: (§1) Surgical procedures were performed under Halothane (2-3%) anesthesia. Partial sciatic nerve injury was made by tying a tight ligature with 9-0 silk suture around ⅓ to ½ the diameter of the sciatic nerve, as had been described (Malmberg A B and Basbaum A I. Pain 1998; 76:215-222). In mice with sham operation, the sciatic nerve was exposed but not ligated. The mice were subsequently habituated to the test environment for at least 1 hour before thermal test and von Foley hair test. In thermal test, the paw withdrawal latency was determined as an indicator for pain. […], the stimulus intensity was adjusted to give a 10-second withdrawal latency in the normal mouse, while the cutoff in the absence of a response was 20 seconds. The mechanical sensitivity with von Foley hairs was assessed by the up-down paradigm (Chaplan et al, J Neurosci Methods 1994; 53:53-66). The filament for the testing paradigm was chosen to be 0.3-gm.
(§2) The peptide 5 as shown in SEQ ID NO: 5 was tested for its anti-hyperalgesia effects in mice receiving sciatic nerve ligation. Results from the thermal test of the sham operated mice and the nerve injured mice were compared in parallel on day 5, 10 and 30 after the surgery.

[5] = tested on: sciatic nerve injured limb (allodynia); test: von Foley hair test (mechanical stimulation) after partial sciatic nerve injury; type: in vivo, C57BL/6 male mice; settings: 2 mg i.p., N=6 per time point
Protocol: as §1
as §2, with “The same animal model in example 3 was used. The” for “The”, “anti-allodynia” for “anti-hyperalgesia”, “mechanical stimulation (von Foley test)” for “thermal test”

Row | Compound | p, onset of pain, peptide 5 vs this substance ([1]; peptides 2 mg, morphine 1 mg i.p., FIG. 3) | p, total writhing number in 30 minutes, peptide 5 vs this substance ([1]; peptides 2 mg, morphine 1 mg i.p., FIG. 4) | inhibition of replication of H1N1 viruses in vitro [2] | onset of the pain induced by intra-peritoneal injection of acetic acid (onset of the 1st writhing) ([1]; 2 mg peptide i.p. 30 min before 1 ml 1% acetic acid i.p., control water alone, FIG. 3) | total writhing number in 30 minutes after acetic acid injection ([1]; 2 mg peptide i.p. 30 min before 1 ml 1% acetic acid i.p., control water alone, FIG. 4) | total writhing number in 30 minutes after acetic acid injection ([1]; 2 mg peptide i.p. 30 min before 1 ml 1% acetic acid i.p., control water alone, FIG. 4, listed as peptide 5) | inhibition of replication of H5N1 viruses in vitro [3] | p (ANOVA), paw withdrawal latency, untreated vs treated injured ipsilateral limb ([4]; day 5, 10 or 30) | temperature-induced pain, paw withdrawal latency [4] | temperature-induced pain, paw withdrawal latency ([4]; listed as peptide 5) | p (ANOVA), von Foley hair threshold, untreated vs treated injury-ipsilateral limb ([5]; day 5, 10 or 30) | allodynia, von Foley hair threshold ([5]; injured limb, day 5, 10 and 30 after surgery, vs untreated (pure water), FIG. 6, listed as peptide 5)
1 | CN1CC[C@]23c4c5ccc(O)c4O[C@H]2[C@@H](O)C=C[C@H]3[C@H]1C5 [morphine, reference compound] | > 0.05 | > 0.05 |  |  |  |  |  |  |  |  |  | 
2 | DEAQETAVSSHEQD ((1)..(14) residues 1-14 of rabbit alpha1-antiproteinase F; listed as Oryctolagus cuniculus) [Peptide 5, fragment (residues 1-14) of rabbit α1-antiproteinase F] |  |  | potent effects in inhibiting the replication | significant delay in the onset of the pain | significant reduction in the total writhing number | reduced total writhing episodes | potent effects in inhibiting the replication | < 0.005 | significantly reduced the temperature-induced pain | significantly increase the tolerance to the heat-induced pain | < 0.005 | significantly increase the tolerance to mechanical stimuli
